For test [1], the system named is E. coli K-12 BW25113. Kind of test: microbe, parasite or virus in culture. In kind it is cell-based, Escherichia coli. The source says:
Unless otherwise indicated, Minimal Salt (MS) medium was used in all experiments, including the laboratory evolution experiments. In line with previous, methodologically relevant laboratory evolution studies, the physical conditions (including the medium) were the same during the course of laboratory evolution and all forthcoming assays on the resulting resistant lines (e.g. MIC measurements). We previously optimized this medium for studying AMPs (1 g L^−1 (NH4)2SO4, 3 g L^−1 KH2PO4 and 7 g L^−1 K2HPO4 supplemented with 0.1 mM MgSO4, 0.54 µg mL^−1 FeCl3, 1 µg mL^−1 thiamine hydrochloride, 0.2% Casamino acids and 0.2% glucose)[19]. This medium is highly controlled and provides a reproducible environment for experimental evolution experiments. All components were obtained from Sigma-Aldrich.
MICs were determined using a standard serial broth dilution technique. Briefly, 11-step serial dilutions were prepared in 96-well microtiter plates with three replicates per strain and antimicrobial compound. Each experiment was repeated at least twice. 5 × 10^5 cells/mL were inoculated into each well, and the plates were incubated at 30 °C in case of E. coli K-12 BW25113, and its antibiotic and AMP-adapted lines, or 37 °C in case of the other bacterial species. […] Cell growth was monitored by measuring the optical density (OD600 value, Biotek Synergy 2 microplate reader was used for this purpose). […] Relative MIC was calculated as follows: MICrelative = MICevolved/MICcontrol.

Test [2] has as its system E. coli K-12 BW25113 carrying ASKA plasmids. Put plainly: microbe, parasite or virus in culture. The class given is cell-based, Escherichia coli. Particulars: MS medium + 10 µg mL−1 CHL + 500 µM IPTG, 5 × 10^5 cells, 16–18 h, 37 °C; for MIC: Escherichia coli. The source says: Bacterial gene amplification generates extensive genetic variation that can provide drug resistance[37],[38]. As gene amplification events tend to be genetically unstable and reduce bacterial fitness, they are transient in nature. Using the ASKA library, which comprises each E. coli ORF cloned into an expression vector[40], we have conducted a global survey to evaluate whether artificially amplified genes provide resistance to any of the 14 AMPs and 11 antibiotics tested. As chloramphenicol (CHL) was used as a selection marker for the ASKA plasmid, this antibiotic was not tested in this screen. E. coli K-12 BW25113 cells were transformed with the pooled plasmids of the ASKA library, and the genetically mixed populations were exposed to increasing levels of AMP or antibiotic stresses, respectively. In all cases, the employed AMP or antibiotic dosages were above the MIC of the wild type. For each drug, we identified the MIC provided in the pooled ASKA plasmid library, and compared it to the MIC of the wild-type strain carrying the empty ASKA plasmid.
The ASKA library (a complete set of E. coli K-12 ORF archive) includes every E. coli ORF cloned into an expression vector (pCA24N)[65]. Prior to screening, the ASKA plasmid collection was pooled and transformed into E. coli K-12 BW25113 strain[66]. The plasmid pool was created by pooling an equal aliquot of cells, each carrying different members of the ASKA library, followed by plasmid miniprep. Next, the plasmid pool was electroporated into E. coli K-12 BW25113 competent cells. […] For the MICs measurements 500 000 cells were inoculated in each well which represents ~100 times coverage of each library member. […] Prior to the measurements the cell population containing the pooled overexpression library or the control strain containing the empty vector were grown in three replicates in LB medium supplemented with 20 µg/mL CHL. As the culture reached high density (i.e., OD600 > 0.8), expression of the plasmid was induced by 50 µM IPTG for 1 h. Following induction, 5 × 10^5 bacterial cells were inoculated in three replicates into each well of the 96-well plate and incubated for 16–18 h at 37 °C. Following incubation the MIC values were determined by measuring optical densities in a plate reader (Biotek Synergy).

[3] abbreviates: Escherichia coli, BW25113, 24 h, read-out: MIC.
Where [4] appears, read: BW25113, Replicate 1, read-out: MIC value of E. coli K-12 BW25113 carrying the empty plasmid of the ASKA library.
Where [5] appears, read: BW25113, Replicate 1, read-out: MIC value of E. coli K-12 BW25113 carrying the pooled plasmids of the ASKA library.
Where [6] appears, read: BW25113, Replicate 2, read-out: MIC value of E. coli K-12 BW25113 carrying the empty plasmid of the ASKA library.
Setting [7] is: BW25113, Replicate 2, read-out: MIC value of E. coli K-12 BW25113 carrying the pooled plasmids of the ASKA library.
The mark [8] stands for this setting: BW25113, Replicate 3, read-out: MIC value of E. coli K-12 BW25113 carrying the empty plasmid of the ASKA library.
The mark [9] stands for this setting: BW25113, Replicate 3, read-out: MIC value of E. coli K-12 BW25113 carrying the pooled plasmids of the ASKA library.
The mark [10] stands for this setting: starting wild-type strain of the evolution experiment, broth dilution, MS medium, 5 × 10^5 cells/mL, 30 °C, 24 h, MIC = OD600 < 0.05.

Where two headings read alike, the source gives them in different places. Ends that are not written are not given here.

Consider 8 molecules from PMC6778101 (Nature Communications, 2019).

Take `C[C@H]1c2cccc(O)c2C(=O)C2=C(O)[C@]3(O)C(=O)C(C(N)=O)=C(O)[C@@H](N(C)C)[C@@H]3[C@@H](O)[C@@H]21` [DOX, Doxycycline]: the MIC in test [1] (setting [3]) was 1.5 µg/mL; in test [2] (setting [4]) it was 0.56 µg/mL; in test [2] (setting [5]) it was 1.59 µg/mL; in test [2] (setting [6]), 0.43 µg/mL; in test [2] (setting [7]), 1.59 µg/mL; in test [2] (setting [8]), 0.56 µg/mL. Also, the MIC in test [2] (setting [9]) came to 1.59 µg/mL.
On to `CC[C@H]1OC(=O)[C@H](C)[C@@H](O[C@H]2C[C@@](C)(OC)[C@@H](O)[C@H](C)O2)[C@H](C)[C@@H](O[C@@H]2O[C@H](C)C[C@H](N(C)C)[C@H]2O)[C@](C)(O)C[C@@H](C)C(=O)[C@H](C)[C@@H](O)[C@]1(C)O` [ERY, Erythromycin], for which the MIC was 11 µg/mL in test [2] (setting [4]); 18.6 µg/mL in test [2] (setting [5]); 14.3 µg/mL in test [2] (setting [6]); 24.1 µg/mL in test [2] (setting [7]); 14.3 µg/mL in test [2] (setting [8]); 24.1 µg/mL in test [2] (setting [9]).
Consider `CO[C@@]1(NC(=O)Cc2cccs2)C(=O)N2C(C(=O)O)=C(COC(N)=O)CS[C@@H]21` [FOX, Cefoxitin], for which the MIC in test [1] (setting [3]) is 4.9 µg/mL; in test [2] (setting [4]), 6.07 µg/mL; in test [2] (setting [5]), 69.2 µg/mL; in test [2] (setting [6]) it was 6.07 µg/mL; in test [2] (setting [7]), 69.2 µg/mL; in test [2] (setting [8]) it was 6.07 µg/mL. For the same molecule, the MIC in test [2] (setting [9]) came out at 69.2 µg/mL.
On to `CCn1cc(C(=O)O)c(=O)c2ccc(C)nc21` [NAL, Nalidixic acid], for which the MIC in test [1] (setting [3]) is 6.35 µg/mL; in test [2] (setting [4]), 0.37 µg/mL; in test [2] (setting [5]), 1.05 µg/mL; in test [2] (setting [6]) it was 0.37 µg/mL; in test [2] (setting [7]) it was 1.05 µg/mL; in test [2] (setting [8]) it was 0.37 µg/mL. Also, the MIC in test [2] (setting [9]) is 1.05 µg/mL.
With `O=C1CN(/N=C/c2ccc([N+](=O)[O-])o2)C(=O)N1` [NIT, Nitrofurantoin], the MIC in test [1] (Escherichia coli, BW25113, 24 h) was 35 µg/mL; in test [2] (setting [4]) it was 6.53 µg/mL; in test [2] (setting [5]) it was 14.7 µg/mL; in test [2] (setting [6]), 6.53 µg/mL; in test [2] (setting [7]), 14.7 µg/mL; in test [2] (setting [8]) it was 6.53 µg/mL. Further, the MIC in test [2] (setting [9]) came out at 6.53 µg/mL.
For the molecule `CN(C)[C@@H]1C(O)=C(C(N)=O)C(=O)[C@@]2(O)C(O)=C3C(=O)c4c(O)cccc4[C@@](C)(O)[C@H]3C[C@@H]12` [TET, Tetracycline], the MIC was 1.2 µg/mL in test [1] (setting [3]); 0.62 µg/mL in test [2] (setting [4]); 1.29 µg/mL in test [2] (setting [5]); 0.62 µg/mL in test [2] (setting [6]); 1.07 µg/mL in test [2] (setting [7]); 0.62 µg/mL in test [2] (setting [8]). In test [2] (setting [9]), the MIC is 1.07 µg/mL.
FLGKVFKLASKVFKAVFGKV [R8]: the MIC in test [1] (setting [10]) is 20 µg/mL. The “MIC value of E. coli K-12 BW25113 carrying the empty plasmid of the ASKA library” value in test [2] (Replicate 1), in test [2] (Replicate 2) and in test [2] (Replicate 3) was 11.57 µg/mL each time. The “MIC value of E. coli K-12 BW25113 carrying the pooled plasmids of the ASKA library” value came to 11.57 µg/mL in test [2] (Replicate 1), 11.57 µg/mL in test [2] (Replicate 2) and 9.46 µg/mL in test [2] (Replicate 3).
For “GLRKRLRKFRNKIKEKLKKIGQKIQGFVPKLAPRTDY [CAP18, rabbit CAP18]”, the MIC in test [1] (setting [10]) was 120 µg/mL. In addition, the “MIC value of E. coli K-12 BW25113 carrying the empty plasmid of the ASKA library” value in test [2] (Replicate 1) is 24.11 µg/mL; in test [2] (Replicate 2), 20.09 µg/mL; in test [2] (Replicate 3), 24.11 µg/mL. For the same molecule, the “MIC value of E. coli K-12 BW25113 carrying the pooled plasmids of the ASKA library” value in test [2] (Replicate 1), in test [2] (Replicate 2) and in test [2] (Replicate 3) was 24.11 µg/mL throughout.
